Key:
Format in all cases: in vivo
[1] = tested on: large (Lg) crabgrass (Digitaria sanguinalis); experiment: Test D pre-/postemergence plant response
Method in brief: (§1)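 Seeds were planted in a loam and sand blend and sprayed preemergence. In parallel, seedlings grown in peat moss/vermiculite medium were sprayed postemergence at 2 to 18 cm height. Both used a surfactant-containing non-phytotoxic solvent. Greenhouse ratings at 13 to 15 days used a 0–100 control scale.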

[2] = tested on: lambsquarters (Chenopodium album); experiment: Test D pre-/postemergence plant response
Method in brief: as §1

[3] = tested on: velvetleaf (Abutilon theophrasti); experiment: Test D pre-/postemergence plant response
Method in brief: as §1

[4] = tested on: soybean (Glycine max); experiment: Test D pre-/postemergence plant response
Method in brief: as §1

[5] = tested on: giant foxtail (Setaria faberii); experiment: Test D pre-/postemergence plant response
Method in brief: as §1

[6] = tested on: corn (Zea mays); experiment: Test D pre-/postemergence plant response
Method in brief: as §1

[7] = tested on: blackgrass (Alopecurus myosuroides); experiment: Test D pre-/postemergence plant response
Method in brief: as §1

[8] = tested on: morningglory (Ipomoea coccinea); experiment: Test D pre-/postemergence plant response
Method in brief: as §1

[9] = tested on: waterhemp (common waterhemp, Amaranthus rudis); experiment: Test D pre-/postemergence plant response
Method in brief: as §1

[10] = tested on: pigweed (Amaranthus retroflexus); experiment: Test D pre-/postemergence plant response
Method in brief: as §1

[11] = tested on: barnyardgrass (Echinochloa crus-galli); experiment: Test D pre-/postemergence plant response
Method in brief: as §1

[12] = tested on: Italian ryegrass (Lolium multiflorum); experiment: Test D pre-/postemergence plant response
Method in brief: as §1

[13] = tested on: ragweed (common ragweed, Ambrosia elatior); experiment: Test B pre-/postemergence plant response; details: 1000 g ai/ha, 0 to 100 scale (0 no effect, 100 complete control)
Method in brief: (§2)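 Evaluation is visual, about 10 days after application, rating injury from 0 (none) to 100 (complete control) relative to untreated controls. Application was a preemergence soil spray on seeded pots or a postemergence spray on one- to two-leaf plants.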

[14] = tested on: Italian ryegrass (Lolium multiflorum); experiment: Test B pre-/postemergence plant response; details: 1000 g ai/ha, 0 to 100 scale (0 no effect, 100 complete control)
Method in brief: as §2

[15] = tested on: kochia (Kochia scoparia); experiment: Test B pre-/postemergence plant response; details: 1000 g ai/ha, 0 to 100 scale (0 no effect, 100 complete control)
Method in brief: as §2

[16] = Postemergence, 16 g ai/ha, scale 0 to 100 (0 no effect, 100 complete control)
[17] = Postemergence, 31 g ai/ha, scale 0 to 100 (0 no effect, 100 complete control)
[18] = Postemergence, 62 g ai/ha, scale 0 to 100, 0 no effect, 100 complete control
[19] = Postemergence, 125 g ai/ha, scale 0 to 100, 0 no effect, 100 complete control
[20] = Preemergence, 16 g ai/ha, scale 0 to 100 (0 no effect, 100 complete control)
[21] = Preemergence, 31 g ai/ha, scale 0 to 100 (0 no effect, 100 complete control)
[22] = Preemergence, 62 g ai/ha, scale 0 to 100 (0 no effect, 100 complete control)

SMILES: FCc1cc(-c2c(F)cccc2Oc2ncc(Cl)cn2)no1 [Compound 57]
- Crabgrass, Large plant response rating [1, 16]: 5
- Crabgrass, Large plant response rating [1, 17]: 5
- Plant response rating, Crabgrass, Large [1, 18]: 10
- Plant response rating, Crabgrass, Large [1, 19]: 10
- Plant response rating (scale 0 to 100), Crabgrass, Large ([1]; Preemergence, 125 g ai/ha): 100
- Plant response rating, Crabgrass, Large [1, 20]: 75
- Plant response rating, Crabgrass, Large [1, 21]: 85
- Plant response rating, Crabgrass, Large [1, 22]: 100
- Lambsquarters plant response rating [2, 16]: 60
- Lambsquarters plant response rating [2, 17]: 40
- Plant response rating, Lambsquarters [2, 18]: 70
- Plant response rating, Lambsquarters [2, 19]: 80
- Plant response rating (scale 0 to 100), Lambsquarters ([2]; Preemergence, 125 g ai/ha): 100
- Plant response rating, Lambsquarters [2, 20]: 80
- Plant response rating, Lambsquarters [2, 21]: 100
- Plant response rating, Lambsquarters [2, 22]: 100
- Velvetleaf plant response rating [3, 16]: 10
- Velvetleaf plant response rating [3, 17]: 50
- Plant response rating, Velvetleaf [3, 18]: 70
- Plant response rating, Velvetleaf [3, 19]: 80
- Plant response rating (scale 0 to 100), Velvetleaf ([3]; Preemergence, 125 g ai/ha): 100
- Plant response rating, Velvetleaf [3, 20]: 100
- Plant response rating, Velvetleaf [3, 21]: 100
- Plant response rating, Velvetleaf [3, 22]: 100
- Soybean plant response rating [4, 16]: 40
- Soybean plant response rating [4, 17]: 70
- Plant response rating, Soybean [4, 18]: 85
- Plant response rating, Soybean [4, 19]: 90
- Plant response rating (scale 0 to 100), Soybean ([4]; Preemergence, 125 g ai/ha): 95
- Plant response rating, Soybean [4, 21]: 65
- Plant response rating, Soybean [4, 22]: 95
- Foxtail, Giant plant response rating [5, 16]: 0
- Foxtail, Giant plant response rating [5, 17]: 10
- Plant response rating, Foxtail, Giant [5, 18]: 20
- Plant response rating, Foxtail, Giant [5, 19]: 20
- Plant response rating (scale 0 to 100), Foxtail, Giant ([5]; Preemergence, 125 g ai/ha): 100
- Plant response rating, Foxtail, Giant [5, 20]: 50
- Plant response rating, Foxtail, Giant [5, 21]: 90
- Plant response rating, Foxtail, Giant [5, 22]: 100
- Corn plant response rating [6, 16]: 0
- Corn plant response rating [6, 17]: 5
- Plant response rating, Corn [6, 18]: 5
- Plant response rating, Corn [6, 19]: 10
- Plant response rating (scale 0 to 100), Corn ([6]; Preemergence, 125 g ai/ha): 30
- Plant response rating, Corn [6, 20]: 0
- Plant response rating, Corn [6, 21]: 0
- Plant response rating, Corn [6, 22]: 5
- Blackgrass plant response rating [7, 16]: 0
- Blackgrass plant response rating [7, 17]: 0
- Plant response rating, Blackgrass [7, 18]: 0
- Plant response rating, Blackgrass [7, 19]: 15
- Plant response rating (scale 0 to 100), Blackgrass ([7]; Preemergence, 125 g ai/ha): 60
- Plant response rating, Blackgrass [7, 20]: 5
- Plant response rating, Blackgrass [7, 21]: 5
- Plant response rating, Blackgrass [7, 22]: 50
- Morningglory plant response rating [8, 16]: 5
- Morningglory plant response rating [8, 17]: 45
- Plant response rating, Morningglory [8, 18]: 45
- Plant response rating, Morningglory [8, 19]: 65
- Plant response rating (scale 0 to 100), Morningglory ([8]; Preemergence, 125 g ai/ha): 45
- Plant response rating, Morningglory [8, 20]: 10
- Plant response rating, Morningglory [8, 21]: 20
- Plant response rating, Morningglory [8, 22]: 35
- Waterhemp plant response rating [9, 16]: 60
- Waterhemp plant response rating [9, 17]: 55
- Plant response rating, Waterhemp [9, 18]: 75
- Plant response rating, Waterhemp [9, 19]: 98
- Plant response rating (scale 0 to 100), Waterhemp ([9]; Preemergence, 125 g ai/ha): 100
- Plant response rating, Waterhemp [9, 20]: 100
- Plant response rating, Waterhemp [9, 21]: 90
- Plant response rating, Waterhemp [9, 22]: 100
- Pigweed plant response rating [10, 16]: 30
- Pigweed plant response rating [10, 17]: 55
- Plant response rating, Pigweed [10, 18]: 55
- Plant response rating, Pigweed [10, 19]: 75
- Plant response rating (scale 0 to 100), Pigweed ([10]; Preemergence, 125 g ai/ha): 100
- Plant response rating, Pigweed [10, 20]: 75
- Plant response rating, Pigweed [10, 21]: 85
- Plant response rating, Pigweed [10, 22]: 100
- Barnyardgrass plant response rating [11, 16]: 0
- Barnyardgrass plant response rating [11, 17]: 5
- Plant response rating, Barnyardgrass [11, 18]: 5
- Plant response rating, Barnyardgrass [11, 19]: 10
- Plant response rating (scale 0 to 100), Barnyardgrass ([11]; Preemergence, 62 g ai/ha): 75
- Plant response rating (scale 0 to 100), Barnyardgrass ([11]; Preemergence, 125 g ai/ha): 85
- Plant response rating, Barnyardgrass [11, 20]: 5
- Plant response rating, Barnyardgrass [11, 21]: 20
- Ryegrass, Italian plant response rating [12, 16]: 0
- Ryegrass, Italian plant response rating [12, 17]: 0
- Plant response rating, Ryegrass, Italian [12, 18]: 0
- Plant response rating, Ryegrass, Italian [12, 19]: 0
- Plant response rating (scale 0 to 100), Ryegrass, Italian ([12]; Preemergence, 125 g ai/ha): 50
- Plant response rating, Ryegrass, Italian [12, 20]: 0
- Plant response rating, Ryegrass, Italian [12, 21]: 0
- Plant response rating, Ryegrass, Italian [12, 22]: 5
- Plant response rating, Ragweed ([13]; Postemergence): 100
- Plant response rating, Ragweed ([13]; Preemergence): 90
- Plant response rating, Ryegrass, Italian ([14]; Postemergence): 80
- Plant response rating, Ryegrass, Italian ([14]; Preemergence): 80
- Plant response rating, Kochia ([15]; Postemergence): 90
- Plant response rating, Kochia ([15]; Preemergence): 100

— patent US10131652B2, “Pyrimidinyloxy benzene derivatives as herbicides” (E. I. DU PONT DE NEMOURS AND COMPANY, priority 2014, dated 2018)
